Test results published in PMC10480161, “Identification of potent and selective N-myristoyltransferase inhibitors of Plasmodium vivax liver stage hypnozoites and schizonts” (Nature Communications, 2023).
Values joined by “and” are separate entries in the source; they are usually repeats but may differ in a detail not shown here. Equal entries are not always repeated.

Columns and labels:
[1] = HepG2 cytotoxicity assay (Live/Dead staining); conditions: human, HepG2 cells
In short: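 Live/dead fluorescence microscopy (calcein-AM and ethidium homodimer, 1 µM each) read at 72 h post-treatment. Compounds dosed at 1 to 20 µM on HepG2 cells, with washing and fresh compound every 24 h.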

[2] = test system: P. falciparum NF54; assay: P. falciparum blood stage assay (SYBR Green); assay type: cell-based, Plasmodium falciparum; conditions: 72 h; for P. falciparum blood-stage development (parasite DNA level fluorescence): untreated = 129; for IC50: ring-stage parasites, relative IC50
Method: To assess whether any of the PvNMTis developed here could qualify as TCP-1 candidates, we assessed the effect of each compound on blood-stage P. falciparum parasites, as there is currently no well-established in vitro platform for screening P. vivax blood-stage parasites. Synchronized P. falciparum NF54 ring-stage parasites were treated for 72 h with each compound at various concentrations, ranging from 0.625 µM to 10 µM, and parasite DNA replication was measured using a fluorescent DNA binding dye (SYBR Green).
Sorbitol-synchronized P. falciparum NF54 ring-stage parasites were cultured at a parasitemia of 0.5% and hematocrit of 1.5% in a 96-well microtiter plate. Parasites were treated with each NMT inhibitor compound at 0.625, 1.25, 2.5, 5, or 10 µM for 72 h. Direct lysis of the blood cells to release the parasite DNA was performed by adding 100 μl of LBS buffer containing SYBR green I DNA binding dye to each well. […] ICEstimator regression analysis (http://www.antimalarial-icestimator.net/) was used to obtain relative IC50 values for each compound.

[3] = test system: P. vivax schizonts; assay: P. vivax liver stage assay, schizonts; assay type: cell-based, Plasmodium vivax; conditions: for Number of liverstage Schizonts per well: 20 µM, 8 dpi; for IC50: primary human hepatocytes, treatment day 5 to 8 post-infection, isolates 2 and 3
Method: We next evaluated the candidate compounds against liver-stage P. vivax (Fig. 5). P. vivax sporozoites were obtained from three independent patient isolates and cultured in primary human hepatocytes from a single donor lot using a 384-well microculture system as described previously. Cells were infected and treated with NMTis at 20 µM beginning day 5 post-infection until day 8 when the infection rates were quantified by fluorescent microscopy.
Accordingly, we applied dose–response curves of all the tested NMTs on parasite isolates 2 and 3 over concentrations up to 20 µM (Fig. 5c, d, Source Data file). We observed similar kinetics for all inhibitors, with a gradual decrease in parasite load upon increasing the drug concentration. […] Nuclei were counted in each well using DAPI staining as a measure of toxicity (Supplementary Fig. 86, Supplementary Source data). We used the phosphatidylinositol 4-kinase inhibitor (PI4Ki), MMV390048, as a positive control for eliminating schizonts[37],[38].
Plasmodium vivax liver stage assays were performed as described previously. Cryopreserved primary human hepatocytes (Cat No. F00995-P) and hepatocyte culture medium (HCM) (InVitroGroTM CP Medium) were obtained from Bioreclamation IVT, Inc., (Baltimore, MD, USA). Briefly, we seeded 384-well plates with primary hepatocytes from a single donor lot at a density of 25,000 cells per well. We then infected the hepatocytes with 14,000 freshly hand-dissected sporozoites per well. Cells were exposed to the compounds at indicated concentrations from day 5 post-infection. We used Pi4K inhibitor MMV390048, at 20 µM, as a positive control to eliminate P. vivax liver schizonts. We then proceeded to feed cultures every day, replacing the compounds until day 8 post-infection. Cells were fixed with 4% PFA, permeabilized with 1% Triton X-100, blocked with 2% BSA, and stained with DAPI and PvUIS4 antibodies to detect schizonts and hypnozoites forms by confocal microscopy. For antibody dilutions, PvUIS4 (kind gift from Dr. Noah Sather, Seattle Children’s Research Institute) was diluted 1:250 and the secondary antibody was anti-mouse AlexaFluor-594 (Cat # A-11005; RRID: AB_2534073) diluted 1:1000. DAPI was diluted 1:2000. The images were processed, analyzed and outlier cells were removed using IMARIS (Bitplane Inc.) image analysis software.

[4] = isolate 1, technical replicates (Fig. 5b)
[5] = isolate 2, technical replicates (Fig. 5b)
[6] = isolate 3, technical replicates (Fig. 5b)
[7] = Plasmodium vivax, Hepatocyte, 120 h

Structure (SMILES) | IC50 at 48 h [1] [nM] | P. falciparum blood-stage development (parasite DNA level fluorescence) ([2]; 0.625 uM) | P. falciparum blood-stage development (parasite DNA level fluorescence) ([2]; 1.25 uM) | P. falciparum blood-stage development (parasite DNA level fluorescence) ([2]; 2.5 uM) | P. falciparum blood-stage development (parasite DNA level fluorescence) ([2]; 5 uM) | P. falciparum blood-stage development (parasite DNA level fluorescence) ([2]; 10 uM) | IC50 ([2]; Plasmodium falciparum, NF54) [nM] | Number of liverstage Schizonts per well [3, 4] | Number of liverstage Schizonts per well [3, 5] | Number of liverstage Schizonts per well [3, 6] | Schizonts per well ([3]; Isolate 2, 1.25 uM) | Schizonts per well ([3]; Isolate 2, 2.5 uM) | Schizonts per well ([3]; Isolate 2, 5 uM) | Schizonts per well ([3]; Isolate 3, 1.25 uM) | Schizonts per well ([3]; Isolate 3, 2.5 uM) | Schizonts per well ([3]; Isolate 3, 5 uM) | Schizonts per well ([3]; Isolate 3, 10 uM) | schizonts (fold change to DMSO) mean diff ([3]; isolate 1, 20 µM) | schizonts (fold change to DMSO) mean diff ([3]; isolate 2, 20 µM) | schizonts (fold change to DMSO) mean diff ([3]; isolate 3, 20 µM) | further results
Fc1ccc(-c2ccnc(N3CCNCC3)c2)c(OCCc2cccnc2)c1 [Compound 12l] | > 20000 | 110.1 | 110.9 | 110.4 | 99.67 | 86.75 | 370 | 0 per well (2×) and 1 per well | 4 per well and 7 per well and 1 per well | 2 per well and 7 per well | 11 per well and 13 per well and 18 per well | 11 per well and 12 per well | 6 per well and 8 per well and 9 per well | 12 per well and 19 per well | 8 per well and 16 per well | 7 per well and 13 per well | 5 per well and 9 per well | 0.983 | 0.7736 | 0.6932 | IC50 [3, 7]: 2900 to 4700 nM
Cc1nn(C)c(C)c1CCOc1cccnc1-c1ccnc(N2CCNCC2)c1 [Compound 12a] | > 20000 | 128.4 | 125.3 | 116.9 | 107.7 | 96.27 | 810 | 5 per well and 3 per well and 1 per well | 1 per well and 0 per well and 3 per well | 2 per well and 6 per well | 12 per well and 16 per well and 11 per well | – | 8 per well and 10 per well and 7 per well | 12 per well and 15 per well | 12 per well and 9 per well | 7 per well and 5 per well | – | 0.850 | 0.9245 | 0.7273 | IC50 [3, 7]: 3000 to 3800 nM
Cc1nn(C)c(C)c1CCOc1cccnc1-c1cccc(N2CCNCC2)c1 [Compound 12b] | > 20000 | 118 | 125.4 | 119.5 | 108.7 | 105.8 | 470 | 1 per well and 2 per well and 0 per well | 2 per well (2×) and 4 per well | 1 per well and 2 per well | 12 per well and 11 per well and 9 per well | 11 per well and 7 per well and 10 per well | 8 per well and 7 per well and 5 per well | 11 per well and 15 per well | 9 per well and 11 per well | 8 per well and 10 per well | 4 per well and 3 per well | – | – | – | Schizonts per well ([3]; Isolate 2, 10 uM): 2 per well and 4 per well; Schizonts per well ([3]; Isolate 3, 20 uM (Fig. 5c-d)): 1 per well and 2 per well; IC50 [3, 7]: 2300 to 4600 nM
Cc1nn(C)c(C)c1CCOc1ccccc1-c1cccc(OCCN(C)C)c1 [Compound 26b] | > 20000 | 123.3 | 124.2 | 115.6 | 103.2 | 94.32 | 710 | 0 per well (2×) and 5 per well | 3 per well and 4 per well and 0 per well | 3 per well and 8 per well | 12 per well and 19 per well and 15 per well | 9 per well and 7 per well and 12 per well | 10 per well and 8 per well and 6 per well | 11 per well and 13 per well | 9 per well and 12 per well | 8 per well and 12 per well | 6 per well and 11 per well | 0.917 | 0.8679 | 0.625 | Schizonts per well ([3]; Isolate 2, 10 uM): 7 per well and 4 per well and 5 per well; IC50 [3, 7]: 3100 to 4100 nM
Cc1n[nH]c(C)c1CCOc1cc(F)ccc1-c1ccnc(N2CCNCC2)c1 [Compound 12q] | – | 114.1 | 119.1 | 116.1 | 98.36 | 97.95 | – | 0 per well (2×) and 1 per well | 3 per well and 4 per well and 1 per well | 3 per well and 7 per well | 11 per well and 15 per well and 12 per well | 7 per well and 9 per well and 13 per well | 9 per well and 11 per well and 12 per well | 12 per well and 13 per well | 6 per well and 11 per well | 7 per well and 6 per well | 5 per well and 8 per well | 0.983 | 0.8491 | 0.6591 | IC50 [2]: 380 nM; Schizonts per well ([3]; Isolate 2, 10 uM): 7 per well and 5 per well and 6 per well; IC50 [3]: 2200 to 3500 nM
Cc1nn(C)c(C)c1CCOc1ccc2ccccc2c1-c1ccnc(N2CCNCC2)c1 [Compound 30a] | – | 115.4 | 121.5 | 115.2 | 95.74 | 95.74 | – | 0 per well | 2 per well (2×) and 0 per well | 4 per well and 0 per well | 10 per well and 11 per well and 19 per well | 11 per well and 12 per well and 16 per well | 6 per well and 8 per well and 11 per well | 13 per well and 11 per well | 7 per well and 6 per well | 8 per well and 4 per well | 5 per well and 7 per well | 1.000 | 0.9245 | 0.8636 | IC50 [2]: 440 nM; Schizonts per well ([3]; Isolate 2, 10 uM): 4 per well and 7 per well and 8 per well; IC50 [3]: 2900 to 4300 nM
